The values that follow come from patent US11702404B2, “GLP-1R modulating compounds” (priority 2019, dated 2023).

Data set [1] in a line: Microsomal stability, human liver microsomes (predicted hepatic clearance). The following applies: predicted from in vitro microsomal stability data.
For data set [2], the target named is GLP-1R (Homo sapiens, UniProt P43220). Briefly: GLP-1R activation: cAMP increase in CHO cells stably expressing GLP-1R. In kind it is cell-based.
[3] abbreviates: cAMP increase, CHO cells stably expressing GLP-1R, 10 point dose response, 30 minutes incubation, read-out: EC50.

Like-named read-outs stand apart in the source and are kept apart here.

Sequence of GLP-1R (P43220 24-463): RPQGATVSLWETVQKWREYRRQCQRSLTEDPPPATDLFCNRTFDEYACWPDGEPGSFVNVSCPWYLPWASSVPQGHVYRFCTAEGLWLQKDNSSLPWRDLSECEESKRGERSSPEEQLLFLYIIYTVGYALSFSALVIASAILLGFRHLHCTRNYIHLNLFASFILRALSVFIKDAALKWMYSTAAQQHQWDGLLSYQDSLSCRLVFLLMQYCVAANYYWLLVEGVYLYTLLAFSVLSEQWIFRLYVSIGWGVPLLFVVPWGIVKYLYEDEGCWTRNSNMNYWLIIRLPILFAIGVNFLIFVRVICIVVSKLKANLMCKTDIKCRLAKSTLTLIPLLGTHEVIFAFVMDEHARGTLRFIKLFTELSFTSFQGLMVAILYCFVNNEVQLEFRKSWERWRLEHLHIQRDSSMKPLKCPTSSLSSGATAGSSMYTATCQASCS

The term EC50 denotes the concentration that produces a half-maximal response. On to `N#Cc1ccc(COc2nccc(-c3cc(F)c(Cc4nc5c(F)cc(C(=O)O)cc5n4Cc4ncco4)cc3F)n2)c(F)c1` [Example 617], for which, in data set [1], the “Predicted Hepatic Clearance (Pred. Cl.)” value is 3.67 mL/min/kg. Moreover, the EC50 in data set [2] (setting [3]) came to 0.55 nM.

For the molecule `CO[C@@H](CO)Cn1c(Cc2cc(F)c(-c3cccc(OCc4ccc(C#N)cc4F)n3)cc2F)nc2ccc(C(=O)O)cc21` [Example 619], the “Predicted Hepatic Clearance (Pred. Cl.)” value in data set [1] was 6.67 mL/min/kg. Further, the EC50 in data set [2] (setting [3]) was 3.1 nM.

As to `COC[C@H](Cn1c(Cc2cc(F)c(-c3cccc(OCc4ccc(C#N)cc4F)n3)cc2F)nc2ccc(C(=O)O)cc21)OC` [Example 620], in data set [1], the “Predicted Hepatic Clearance (Pred. Cl.)” value was 6.67 mL/min/kg. The EC50 in data set [2] (EC50 (nM)) was 7.5 nM.

In the case of `COC[C@@H](Cn1c(Cc2cc(F)c(-c3cccc(OCc4ccc(C#N)cc4F)n3)cc2F)nc2ccc(C(=O)O)cc21)OC` [Example 621], in data set [1], the “Predicted Hepatic Clearance (Pred. Cl.)” value was 10.7 mL/min/kg. For the same molecule, the EC50 in data set [2] (EC50 (nM)) was 17.4 nM.

As to `N#Cc1ccc(COc2nccc(-c3ccc(Cc4nc5ccc(C(=O)O)cc5n4Cc4ncco4)cc3F)n2)c(F)c1` [Example 622], in data set [1], the “Predicted Hepatic Clearance (Pred. Cl.)” value is 6.33 mL/min/kg. Further, the concentration giving a half-maximal response (EC50) in data set [2] (setting [3]) worked out at 2.68 nM.

As for `N#Cc1ccc(COc2cccc(-c3cc(F)c(Cc4nc5ccc(C(=O)O)cc5n4CC45CC(CCO4)C5)cc3F)n2)c(F)c1` [Example 623], in data set [1], the “Predicted Hepatic Clearance (Pred. Cl.)” value is 10.7 mL/min/kg. The EC50 in data set [2] (setting [3]) was determined as 4.04 nM.

Consider `N#Cc1ccc(COc2cccc(-c3cc(F)c(Cc4nc5ccc(C(=O)O)cc5n4CC45COC(C4)C5)cc3F)n2)c(F)c1` [Example 624], for which, in data set [1], the “Predicted Hepatic Clearance (Pred. Cl.)” value was 5 mL/min/kg. Further, in data set [2] (setting [3]), the EC50 was 1.68 nM.

For `N#Cc1ccc(COc2cccc(-c3ccc(Cc4nc5c(F)cc(C(=O)O)cc5n4Cc4ncco4)c(F)c3)n2)c(F)c1` [Example 625], the “Predicted Hepatic Clearance (Pred. Cl.)” value in data set [1] was 2.67 mL/min/kg. In addition, the EC50 in data set [2] (setting [3]) came to 0.63 nM.

With `N#Cc1ccc(COc2nccc(-c3ccc(Cc4nc5ccc(C(=O)O)cc5n4CC45CC(CO4)C5)cc3F)n2)c(F)c1` [Example 626], the “Predicted Hepatic Clearance (Pred. Cl.)” value in data set [1] was 7.83 mL/min/kg. The EC50 in data set [2] (setting [3]) was 23.9 nM.

For the molecule `COC1(Cn2c(Cc3cc(F)c(-c4cccc(OCc5ccc(C#N)cc5F)n4)cc3F)nc3ccc(C(=O)O)cc32)CCOC1` (centres unmarked) [Example 627], the “Predicted Hepatic Clearance (Pred. Cl.)” value in data set [1] is 7.83 mL/min/kg. Further, the EC50 in data set [2] (setting [3]) worked out at 2.19 nM.

With `N#Cc1ccc(COc2cccc(-c3cc(F)c(Cc4nc5ccc(C(=O)O)cc5n4CCOC4CCC4)cc3F)n2)c(F)c1` [Example 628], the “Predicted Hepatic Clearance (Pred. Cl.)” value in data set [1] was 3.17 mL/min/kg. The EC50 in data set [2] (setting [3]) turned out to be 13.4 nM.

As to `N#Cc1ccc(COc2cccc(-c3cc(F)c(Cc4nc5ccc(C(=O)O)cc5n4CCOC4CC4)cc3F)n2)c(F)c1` [Example 629], the “Predicted Hepatic Clearance (Pred. Cl.)” value in data set [1] is 1.83 mL/min/kg. Further, in data set [2] (setting [3]), the EC50 turned out to be 1.26 nM.

Regarding `N#Cc1ccc(COc2cccc(-c3cc(F)c(Cc4nc5ccc(C(=O)O)cc5n4[C@H]4CCNC4=O)cc3F)n2)c(F)c1` [Example 630], in data set [1], the “Predicted Hepatic Clearance (Pred. Cl.)” value is 2.67 mL/min/kg. The EC50 in data set [2] (setting [3]) was found to be 39.4 nM.

As to `N#Cc1ccc(COc2cccc(-c3cc(F)c(Cc4nc5ccc(C(=O)O)cc5n4[C@@H]4CCNC4=O)cc3F)n2)c(F)c1` [Example 631], the “Predicted Hepatic Clearance (Pred. Cl.)” value in data set [1] is 3 mL/min/kg. Besides, in data set [2] (setting [3]), the EC50 was found to be 74.9 nM.

`N#Cc1ccc(COc2cccc(-c3cc(F)c(Cc4nc5ccc(C(=O)O)c(F)c5n4C[C@@H]4CCO4)cc3F)n2)c(F)c1` [Example 632]: the “Predicted Hepatic Clearance (Pred. Cl.)” value in data set [1] was 1.83 mL/min/kg. In addition, in data set [2] (setting [3]), the EC50 was 0.24 nM.

Take `N#Cc1ccc(COc2cccc(-c3ccc(Cc4nc5c(F)cc(C(=O)O)cc5n4C[C@@H]4CCO4)cc3)n2)c(F)c1` [Example 633]: the “Predicted Hepatic Clearance (Pred. Cl.)” value in data set [1] was 4.83 mL/min/kg. The EC50 in data set [2] (setting [3]) came out at 0.17 nM.

On to `COCCn1c(Cc2cc(F)c(-c3cccc(OCc4ccc(C(F)F)cc4F)n3)cc2F)nc2c(F)cc(C(=O)O)cc21` [Example 635], for which, in data set [1], the “Predicted Hepatic Clearance (Pred. Cl.)” value was 1.83 mL/min/kg. Besides, the EC50 in data set [2] (setting [3]) was 0.46 nM.

For `COC1(Cn2c(Cc3cc(F)c(-c4cccc(OCc5ccc(C#N)cc5F)n4)cc3F)nc3ccc(C(=O)O)cc32)COC1` [Example 636], the “Predicted Hepatic Clearance (Pred. Cl.)” value in data set [1] is 6.5 mL/min/kg. Besides, in data set [2] (setting [3]), the EC50 is 1.27 nM.

For `COCC1(Cn2c(Cc3cc(F)c(-c4cccc(OCc5ccc(C#N)cc5F)n4)cc3F)nc3ccc(C(=O)O)cc32)CC1` [Example 638], the “Predicted Hepatic Clearance (Pred. Cl.)” value in data set [1] was 1.83 mL/min/kg. Moreover, in data set [2] (setting [3]), the half-maximal effective concentration (EC50) is 2.24 nM.

As to `CN1CCO[C@H](Cn2c(Cc3cc(F)c(-c4cccc(OCc5ccc(C#N)cc5F)n4)cc3F)nc3ccc(C(=O)O)cc32)C1` [Example 639], in data set [1], the “Predicted Hepatic Clearance (Pred. Cl.)” value is 5 mL/min/kg. In data set [2] (setting [3]), the EC50 was determined as 78.2 nM.

For the molecule `N#Cc1ccc(COc2cccc(-c3cc(F)c(Cc4nc5ccc(C(=O)O)cc5n4CC4CCCCO4)cc3F)n2)c(F)c1` (centres unmarked) [Example 640], the “Predicted Hepatic Clearance (Pred. Cl.)” value in data set [1] is 8.5 mL/min/kg. For the same molecule, in data set [2] (setting [3]), the EC50 is 16.6 nM.

`N#Cc1ccc(COc2cccc(-c3cc(F)c(Cc4nc5ccc(C(=O)O)cc5n4C[C@H]4COCCO4)cc3F)n2)c(F)c1` [Example 641]: the “Predicted Hepatic Clearance (Pred. Cl.)” value in data set [1] was 2.83 mL/min/kg. Moreover, in data set [2] (setting [3]), the EC50 was determined as 65.9 nM.

Turning to `N#Cc1ccc(COc2cccc(-c3cc(F)c(Cc4nc5ccc(C(=O)O)cc5n4C[C@@H]4COCCO4)cc3F)n2)c(F)c1` [Example 642], in data set [1], the “Predicted Hepatic Clearance (Pred. Cl.)” value was 2.67 mL/min/kg. In data set [2] (setting [3]), the EC50 is 5.14 nM.

`O=C(O)c1cc(F)c2nc(Cc3cc(F)c(-c4cccc(OCc5ccc(C(F)F)cc5F)n4)cc3F)n(C[C@@H]3CCO3)c2c1` [Example 643]: in data set [1], the “Predicted Hepatic Clearance (Pred. Cl.)” value is 5 mL/min/kg. Also, the EC50 in data set [2] (setting [3]) was determined as 0.03 nM.

As to `N#Cc1ccc(COc2nccc(-c3cc(F)c(Cc4nc5c(F)cc(C(=O)O)cc5n4CC45CC(CO4)C5)cc3F)n2)c(F)c1` [Example 644], the “Predicted Hepatic Clearance (Pred. Cl.)” value in data set [1] is 8 mL/min/kg. The EC50 in data set [2] (setting [3]) was 0.69 nM.

Consider `N#Cc1ccc(COc2nccc(-c3cc(F)c(Cc4nc5ccc(C(=O)O)cc5n4CC45CC(CO4)C5)cc3F)n2)c(F)c1` [Example 645], for which the “Predicted Hepatic Clearance (Pred. Cl.)” value in data set [1] was 9.17 mL/min/kg. In data set [2] (setting [3]), the EC50 was 2.05 nM.

In the case of `O=C(O)c1cc(F)c2nc(Cc3ccc(-c4cccc(OCc5ccc(C(F)F)cc5F)n4)cc3F)n(CC34CC(CO3)C4)c2c1` [Example 646], the “Predicted Hepatic Clearance (Pred. Cl.)” value in data set [1] is 5.83 mL/min/kg. Also, the EC50 in data set [2] (setting [3]) came out at 1.78 nM.

For the molecule `O=C(O)c1ccc2nc(Cc3ccc(-c4cccc(OCc5ccc(C(F)F)cc5F)n4)cc3F)n(CC34CC(CO3)C4)c2c1` [Example 647], the “Predicted Hepatic Clearance (Pred. Cl.)” value in data set [1] is 3.5 mL/min/kg. In addition, the EC50 in data set [2] (setting [3]) is 3.02 nM.

Take `O=C(O)c1cc(F)c2nc(Cc3ccc(-c4cccc(OCc5ccc(C(F)F)cc5F)n4)cc3F)n(C[C@@H]3CCO3)c2c1` [Example 648]: the “Predicted Hepatic Clearance (Pred. Cl.)” value in data set [1] was 2.33 mL/min/kg. The EC50 in data set [2] (setting [3]) was determined as 0.09 nM.

In the case of `N#Cc1ccc(COc2cccc(-c3cc(F)c(Cc4nc5c(F)cc(C(=O)O)cc5n4CC45CC(CO4)C5)cc3F)n2)c(F)c1` [Example 649], in data set [1], the “Predicted Hepatic Clearance (Pred. Cl.)” value is 5.83 mL/min/kg. Besides, in data set [2] (setting [3]), the EC50 was found to be 0.2 nM.

As to `N#Cc1ccc(COc2nccc(-c3ccc(Cc4nc5c(F)cc(C(=O)O)cc5n4CC45CC(CO4)C5)cc3F)n2)c(F)c1` [Example 650], the “Predicted Hepatic Clearance (Pred. Cl.)” value in data set [1] is 11 mL/min/kg. In addition, in data set [2] (setting [3]), the EC50 was 19.6 nM.
